How the values were obtained:
[1] = Cassette dosing oral pharmacokinetics in ICR mice; type: in vivo; conditions: ICR (IcrTac:ICR), mouse; cassette oral dose 25 mg/kg, female ICR mice, plasma, 0-8 h, none in table
Method: A cassette dosing procedure was utilized to determine pharmaceutical properties of compounds disclosed herein. In this procedure, compounds are selected for each cassette (i.e., cocktail) on the basis that mass spectrometric signals for each compound will not interfere with one another upon mass spectrometric analysis (e.g., will not overlap). The concentration of each compound in the dosing cassette often is about 20 mg/mL to achieve an oral dose level of 25 mg/kg in ICR mice. Aspects of the cassette dosing procedure are described hereafter.
Prepare 0.5 mL of 20 mg/mL dosing solution (in PBS or formulation vehicle) of 12 test compounds. Dilute a dosing solution 20 fold by transferring 10 μL of the stock solution into 190 μL acetonitrile containing 0.1% formic acid to achieve a final concentration of 1 mg/mL. Dilute further a 1 mg/mL solution 1,000 fold by transferring 1 μL of the stock solution into 999 μL acetonitrile containing 0.1% formic acid to achieve a final concentration of 1 μg/mL. Use the 1 μg/mL solution for mass spectrometric method development based on direct infusion. Determine parent/daughter mass spectra of each compound using multiple reaction monitoring (MRM). Compare parent/daughter mass spectra of each compound to assure no cross-reaction interference during LC-MS/MS measurements. Based on MRM mass spectra determine the composition of all cassettes.
Mix 250 μL of four prepared dosing solutions and an oral PK internal standard (20 mg/mL each) according to cassette design to achieve a final concentration of 4 mg/mL. Vortex cassettes rigorously and ultra-sonicate to obtain a clear solution or homogeneous suspension. Use the cassette solutions to dose animals by oral route of administration at 25 mg/kg.
All in vivo experiments follow protocols approved by the Animal Use and Care Committee. Female ICR mice (IcrTac:ICR), 8-10 weeks of age are obtained from Taconic (Hudson, N.Y.). Mice are housed on a 12 h/12 h light/dark cycle with ad libitum access to water and food. After a minimum two week acclimation period, the mice are randomized into groups with a minimum group size of four. The animals used for pharmacokinetic studies have a body-weight range of 25-35 g. A 25 mg/kg (4 mg/ml) dose of a cassette described in Example 1 is orally administered to mice that have been fasted overnight.
After compound administration, serial blood samples are collected via retro-orbital puncture with a capillary tube at various time points (15, 30 minutes and 1, 2, 4, 6 and 8 hours). The samples are transferred to a heparinized 0.5 mL microcentrifuge tube and placed on ice. Plasma is separated by centrifugation and samples are stored at −80° C. until assay.
Dilute a cassette dosing solution (4 mg/mL) four fold by transferring 25 μL of the stock solution into 75 μL of 50% acetonitrile containing 0.1% formic acid to achieve the concentration of 1 mg/mL. Dilute this stock solution further by serial dilutions to make 0.01, 0.1, 1 and 5 μg/mL working standard solutions.
Prepare 500 mL of 0.5 μg/mL solution of bioanalytical internal standard using 100% acetonitrile with 0.1% formic acid. Store the quenching solution in a tightly sealed bottle at 4° C.
Transfer 15 μL of blank mouse plasma to a 96 well plate and precipitate plasma proteins by pipetting of 120 μL of quenching solution to all plasma aliquots. Cover the plate with a matching plate mat and mix well for 30-60 seconds using a vertical multi-tube shaker.
Add 15 μL of the working standard solution of corresponding cassette to quenched plasma and vortex the plate for an additional 30-60 seconds. Then, centrifuge the plate at 4,000 rpm for 10 minutes at 4° C. Without disturbing the plasma protein pellet, transfer 120 μL of the supernatant to a new 96 well plate and dry the sample under nitrogen using a TurboVap® plate evaporator (Caliper Life Sciences; Hopkinton, Mass.). Reconstitute dried residues with 120 μL 20% acetonitrile containing 0.1% formic acid. […]

[2] = Pharmacokinetic evaluation IV bolus and oral (bioavailability) in ICR mice; type: in vivo; conditions: mouse, plasma, IV 5 mg/kg and PO 25 mg/kg, read-out: Bioavailability (% F)
Method: The pharmacokinetics properties of drugs are investigated in ICR mice following an intravenous (IV) bolus and oral (PO) doses of drug at 5 mg/kg and 25 mg/kg respectively. Blood samples are collected at predetermined times and the plasma separated. Plasma is separated from the blood samples collected at 5, 15 and 30 minutes and 1, 2, 4, 8 and 24 hours post-dose.
Drug levels are quantified by the LC/MS/MS method described below. Noncompartmental pharmacokinetic analysis is applied for intravenous administration. A linear trapezoidal rule is used to compute AUC(0-24) or AUC(0-8). The terminal t1/2 and C0 are calculated using the last three and the first three data points, respectively
Bioanalysis is performed using a Quattro Micro LC/MS/MS instrument in the MRM detection mode, with an internal standard (IS). Briefly, 15 μL plasma samples are prepared for analysis using protein precipitation with 120 μL of acetonitrile. The supernatants are transferred into a 96 well plate and subjected to LC-MS/MS analysis using a PHENOMENEX® Polar-RP HPLC column. The mobile phases are 10 mM NH4HCO3 in water (Solution-A) and 10 mM NH4HCO3 in methanol (Solution-B). The column is initially equilibrated with 25% Solution-B and followed with 100% Solution B over 5 minutes. The method has a dynamic range from 1 to 10,000 ng/mL. Quantitation of the analytes is performed in the batch mode with two bracketing calibration curves according to the bioanalytical sample list.

Row | Structure (SMILES) | AUC(0-t) [1] [ng·h/mL] | bioavailability [2] [%]
1 | Cn1c2ccccc2n2c3nc(N4CCOCC4)c(F)cc3c(=O)c(C(=O)NCCN3CCCC3)c12 | 2000 | –
2 | CN1CCCC1CCNC(=O)c1c(=O)c2cc(F)c(N3CCOCC3)nc2n2c3ccccc3n(C)c12 (centres unmarked) | 1190 | 10.4
3 | O=C(NCCN1CCCC1)c1c(=O)c2ccc(N3CCOCC3)nc2n2c1sc1ccccc12 | 2150 | 10.7
4 | CN1CCCC1CCNC(=O)c1c(=O)c2ccc(N3CCOCC3)nc2n2c1sc1ccccc12 (centres unmarked) | 2590 | –
5 | Cn1c2ccccc2n2c3nc(N4CCOCC4)ccc3c(=O)c(C(=O)NCCN3CCCC3)c12 | 1260 | –
6 | CN1CCCC1CCNC(=O)c1cn2c3c(c(N4CCOCC4)c(F)cc3c1=O)Oc1ccccc1-2 (centres unmarked) | 1430 | –
7 | CN1CCCC1CCNC(=O)c1c(=O)c2cc(F)c(N3CCOCC3)nc2n2c1sc1ccccc12 (centres unmarked) | 3810 | 22.4
8 | O=C(NCCN1CCCC1)c1c(=O)c2cc(F)c(N3CCOCC3)nc2n2c1sc1ccccc12 | 2260 | –
9 | CN1CCN(C(=O)c2c(=O)c3cc(F)c(N4CCOCC4)nc3n3c2sc2ccccc23)CC1 | 6160 | 30.3
10 | O=C(NCCN1CCC(O)C1)c1c(=O)c2cc(F)c(N3CCOCC3)nc2n2c1sc1ccccc12 (centres unmarked) | 1090 | –
11 | CN1CCC(N(C)C(=O)c2c(=O)c3cc(F)c(N4CCOCC4)nc3n3c2sc2ccccc23)C1 (centres unmarked) | 2130 | –
12 | O=C(NCCNCC1CCCO1)c1c(=O)c2ccc(N3CCOCC3)nc2n2c1sc1ccccc12 (centres unmarked) | 1900 | 2
13 | O=C(NCCN1CC=CC1)c1c(=O)c2ccc(N3CCOCC3)nc2n2c1sc1ccccc12 | 7940 | 27.5
14 | Cn1cncc1CNC(=O)c1c(=O)c2ccc(N3CCOCC3)nc2n2c1sc1ccccc12 | 2920 | 12.4
15 | O=C(c1c(=O)c2ccc(N3CCOCC3)nc2n2c1sc1ccccc12)N1CCN(c2ncccn2)CC1 | 15300 | 31.1
16 | O=C(c1c(=O)c2ccc(N3CCOCC3)nc2n2c1sc1ccccc12)N1CCN(c2ccccn2)CC1 | 1740 | –
17 | O=C(NCCN1CC=CC1)c1cn2c3c(c(N4CCC(c5cnccn5)C4)c(F)cc3c1=O)Oc1cc3ccccc3cc1-2 (centres unmarked) | 8040 | –
18 | O=C(NCCN1CC=CCC1)c1c(=O)c2ccc(N3CCOCC3)nc2n2c1sc1ccccc12 | 632 | –
19 | O=C(NCCN1CC=CC1)c1c(=O)c2cc(F)c(N3CCOCC3)nc2n2c1sc1ccccc12 | 2000 | –
20 | O=C(NCCNCCF)c1c(=O)c2ccc(N3CCOCC3)nc2n2c1sc1ccccc12 | 5020 | –
21 | O=C(NCCNCC(F)(F)F)c1c(=O)c2ccc(N3CCOCC3)nc2n2c1sc1ccccc12 | 9450 | –
22 | O=C(NCCNCCF)c1c(=O)c2cc(F)c(N3CCOCC3)nc2n2c1sc1ccccc12 | 2220 | –

Row | Structure (SMILES) | AUC(0-t) [1] [ng·h/mL] | bioavailability [2] [%]
23 | O=C(NCCn1ccnc1)c1c(=O)c2ccc(N3CCOCC3)nc2n2c1sc1ccccc12 | 4030 | –
24 | Cn1ccnc1CNC(=O)c1c(=O)c2ccc(N3CCOCC3)nc2n2c1sc1ccccc12 | 5490 | 17.9
25 | O=C(NCCN1CCOCC1)c1c(=O)c2ccc(N3CCOCC3)nc2n2c1sc1ccccc12 | 2980 | –
26 | Cn1ccnc1CNC(=O)c1c(=O)c2cc(F)c(N3CCOCC3)nc2n2c1sc1ccccc12 | 20300 | 15.8
27 | Cc1nccn1CCNC(=O)c1c(=O)c2ccc(N3CCOCC3)nc2n2c1sc1ccccc12 | 4380 | –
28 | O=C(NNC1=NCCN1)c1c(=O)c2cc(F)c(N3CCOCC3)nc2n2c1sc1ccccc12 | 2430 | 0.1
29 | Cn1c2ccccc2n2c3nc(N4CCOCC4)c(F)cc3c(=O)c(C(=O)N3CCN4CCCC4C3)c12 (centres unmarked) | 3210 | –
30 | CN1CCN(c2ccc3c(=O)c(C(=O)NCc4ccccn4)c4sc5ccccc5n4c3n2)CC1 | 51100 | 41.4
31 | O=C(NCCNC1CC1)c1c(=O)c2cc(F)c(N3CCOCC3)nc2n2c1sc1ccccc12 | 5150 | –
32 | CN1CCCCC1CNC(=O)c1c(=O)c2ccc(N3CCOCC3)nc2n2c1sc1ccccc12 (centres unmarked) | 1050 | –
33 | CN1CCCN(C(=O)c2c(=O)c3cc(F)c(N4CCOCC4)nc3n3c2sc2ccccc23)CC1 | 4230 | –
34 | Cn1ccnc1CNC(=O)c1c(=O)c2cc(N3CCOCC3)nnc2n2c1sc1ccccc12 | 3780 | –
35 | CN1CCCC(NC(=O)c2c(=O)c3cc(F)c(N4CCOCC4)nc3n3c2sc2ccccc23)C1 (centres unmarked) | 1030 | –
36 | O=C(NCC1CCCN1)c1c(=O)c2cc(F)c(N3CCOCC3)nc2n2c1sc1ccccc12 (centres unmarked) | 1050 | –
37 | CN1CCCCC1CNc1ccc2c(=O)c(C(=O)NCc3ccncc3)c3sc4ccccc4n3c2n1 (centres unmarked) | 790 | –
38 | CN1CCCC1CNC(=O)c1c(=O)c2cc(F)c(N3CCOCC3)nc2n2c1sc1ccccc12 (centres unmarked) | 3960 | –
39 | CN1CCN(c2nc3c(cc2F)c(=O)c(C(=O)NCc2cn(C)cn2)c2sc4ccccc4n23)CC1 | 45100 | –
40 | O=C(NCCNC1CCC1)c1c(=O)c2ccc(N3CCOCC3)nc2n2c1sc1ccccc12 | 3180 | –
41 | CN1CCN(c2ccc3c(=O)c(C(=O)NC4CC4)c4n(C)c5ccccc5n4c3n2)CC1 | 5200 | –
42 | O=C(NCCNC1CC1)c1c(=O)c2ccc(N3CCOCC3)nc2n2c1sc1ccccc12 [drawing 604] | 5370 | 43.3
43 | Cc1cnc(CNC(=O)c2c(=O)c3ccc(N4CCN(C)CC4)nc3n3c2sc2ccccc23)cn1 [drawing 619] | 166000 | –
